Patent US20250134907A1, “FUSED DIAZEPINES AS AGONISTS OF THE INSULIN-LIKE 3 (INSL3) PEPTIDE RECEPTOR RXFP2 AND METHODS OF USE THEREOF” (The United States of America,as represented by the …, priority 2022, published 2025)

Target: T1, WT RXFP2 (Homo sapiens, UniProt Q8WXD0)
T1 construct: using full-length human RXFP1 and RXFP2 receptor constructs; FLAG; expressed in transfected cells; host or cells: HEK293T (transient, Lipofectamine2000)
Experiment: HTRF cAMP assay in HEK293T cells transiently transfected with WT RXFP2
Type: cell-based
Excerpt: To further investigate the involvement of the RXFP2 extracellular and transmembrane domains in agonist activation of the receptor, two complementary chimeras were created using the RXFP1 receptor, which is not activated by the agonists of formula (I), to transiently transfect HEK293T cells and measured changes in cAMP induction using the HTRF assay.
Chimeric receptors were generated by IN-FUSION™ (Takara Bio USA, Inc., San Jose, CA) mutagenesis using full-length human RXFP1 and RXFP2 receptor constructs. Polymerase chain reaction (PCR) was performed using PfuTurbo high-fidelity DNA polymerase (Agilent Technologies, Santa Clara, CA) and overlapping primers with at least 15 bp sequence homology within the fusion site. PCR products were digested with Dpnl restricton enzyme at 37° C. overnight, run on a 0.8% agarose gel and purified using the GENEJET™ Gel extraction kit (Thermo Scientific, Waltham, MA). The purified DNA fragments were then ligated into the BamHI and XhoI pre-digested pcDNA3.1™/Zeo(+) AmpR mammalian expression vector using the In-Fusion HD enzyme premix (Clontech, Mountain View, CA) at 50° C. for 15 minutes, and the resulting product was used to transform Stellar competent cells (Takara Bio USA, Inc., San Jose, CA). The clones were fully sequenced to confirm the correct fusion of both receptor fragments. Chimera RXFP2-1 contained the extracellular domain of RXFP2 and the transmembrane domain of RXFP1. Accordingly, chimera RXFP1-2 contained the extracellular domain of RXFP1 and the transmembrane domain of RXFP2.
HEK293T cells were seeded in 6-well flat-bottom clear plates at 0.5 million cells/well in 2 mL/well of growth medium (DMEM, 10% FBS, 1× Pen/Strep) and allowed to attach overnight at 37° C. and 5% CO2. The next morning, cells were transfected with 2 μg of plasmid (chimeric receptors, WT RXFP2, or WT RXFP1) and 6 μl of Lipofectamine2000 (Invitrogen, Waltham, MA) in a total volume of 200 μl/well OPTI-MEM™ I (Thermo Fisher, Waltham, MA) reduced serum medium and allowed to incubate an additional 24 hours. The next day, transfected cells were seeded in 96-well flat-bottom opaque plates at 30,000 cells/well in 60 μL/well of serum-free DMEM medium and allowed to attach overnight at 37° C. at 5% CO2. The next morning, cells were treated with 1 μL/well of compound (25 μM-0.25 nM), 2 μM forskolin, or DMSO vehicle. Cells were also treated with 4 μL of positive control INSL3 (100-0.01 nM), Relaxin2 (100-10 nM), or vehicle (serum-free DMEM+IBMX). Plates were incubated for 1 hour at 37° C. and 5% CO2, after which kit cAMP-d2 and anti-cAMP antibody were added as previously described. Cells were incubated for 1 hour at room temperature, and then the signal was read on a CLARIOstar plate reader (BMG Labtech, Germany).

T1 sequence (Q8WXD0 whole entry): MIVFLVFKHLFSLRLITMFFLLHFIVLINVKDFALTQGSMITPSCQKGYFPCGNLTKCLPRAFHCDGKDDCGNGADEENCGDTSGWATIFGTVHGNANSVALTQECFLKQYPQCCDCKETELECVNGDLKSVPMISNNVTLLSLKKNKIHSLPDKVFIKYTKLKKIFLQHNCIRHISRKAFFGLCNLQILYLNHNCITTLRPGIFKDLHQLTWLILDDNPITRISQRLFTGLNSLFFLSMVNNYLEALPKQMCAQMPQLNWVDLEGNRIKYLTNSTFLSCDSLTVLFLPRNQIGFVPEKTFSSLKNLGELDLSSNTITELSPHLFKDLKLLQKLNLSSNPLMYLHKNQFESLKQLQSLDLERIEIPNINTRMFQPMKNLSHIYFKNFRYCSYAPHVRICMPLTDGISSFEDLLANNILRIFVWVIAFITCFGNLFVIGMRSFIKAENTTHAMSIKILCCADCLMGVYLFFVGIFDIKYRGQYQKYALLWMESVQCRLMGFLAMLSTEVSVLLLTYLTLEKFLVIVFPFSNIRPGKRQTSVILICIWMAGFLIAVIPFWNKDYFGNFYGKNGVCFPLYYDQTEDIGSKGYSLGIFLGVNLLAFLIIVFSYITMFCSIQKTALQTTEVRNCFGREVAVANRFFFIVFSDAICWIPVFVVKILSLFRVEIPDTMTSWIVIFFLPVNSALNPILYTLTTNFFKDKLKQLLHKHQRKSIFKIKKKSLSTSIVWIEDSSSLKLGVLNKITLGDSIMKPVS

Compound: O=C1Nc2ccc(-c3cc(C(F)(F)F)cc(C(F)(F)F)c3)cc2C(=O)N2CCN(C(=O)COc3ccc(OC(F)(F)F)cc3I)C[C@@H]12 [Example 187, (S)-8-(3,5-bis(trifluoromethyl)phenyl)-2-(2-(2-iodo-4-(trifluoromethoxy)phenoxy)acetyl)-1,3,4,12a-tetrahydrobenzo[e]pyrazino[1,2-a][1,4]diazepine-6,12 (2H, 11H)-dione]
- Emax (HEK-293T, normalized to 2 μM forskolin cAMP response as 100% activity): 86.3 ± 3.38%
- EC50 (read-out: EC50 (μM or nM)): 0.012 ± 0.008 µM
